Measured values from PubChem BioAssay (NCI).
Where “and” joins values, the source holds several entries; their conditions need not be identical. Equal entries are not always repeated.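 Five compound concentrations were applied to cells in 96-well plates for 48 hours; endpoints were derived by simple linear interpolation of the resulting dose-response curve. Abbreviation: GI50, concentration required for 50% inhibition of growth. At the TGI there is no net growth.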

Test system: MDA-MB-468 breast
Assay: NCI tumour cell line growth inhibition, 48 h

Row | Compound | GI50 | TGI
1 | CC1=C([Se]CC(OC(=O)[C@@H](CSSC(C)(C)C)NC(=O)OC(C)(C)C)C(=O)NC(C)(C)C)C(=O)c2ccccc2C1=O (stereo not given in full) | 1.66 µM | 3.77 µM
2 | COc1cc(-c2nn3c(/C=C4/C(=O)Nc5ccccc54)c(-c4ccc(C)cc4)nc3s2)cc(OC)c1OC | 4.84 µM | 30.6 µM
3 | O=P([O-])(O)OP(=O)([O-])O.[NH-][C@H]1CCCC[C@@H]1[NH-].[OH-].[OH-].[Pt+4] | 18.8 µM | 39.9 µM
4 | Cc1ccc(C(=O)N(CCCN)[C@@H](c2nc3cc(Cl)ccc3c(=O)n2Cc2ccccc2)C(C)C)cc1 | < 0.01 µM | < 0.01 µM
5 | COc1cc(C(=O)OCCCCCCCCCCC[P+](c2ccccc2)(c2ccccc2)c2ccccc2)ccc1O | 0.284 µM | 1.09 µM
6 | COc1cc(/C(Cl)=C/C=C/C(=O)c2c(C)[n+]([O-])c3ccc(Cl)cc3[n+]2[O-])cc(OC)c1OC | 1.87 µM | 9.29 µM
7 | Cn1ccnc1C(=O)/C=C/c1ccc(NC(=O)c2ccc(F)cc2)cc1 | 2.87 µM | 15.9 µM
8 | CNC(=O)c1cc(COc2nnc(Nc3ccc(Cl)cc3)c3ccoc23)ccn1 | 6.94 µM and > 10 µM | 30.9 µM and > 10 µM
9 | C=CC(=O)Nc1ccc(Nc2nccc(-c3ccc(N4CCCC4)c(C#N)c3)n2)cc1 | 7.43 µM | > 25 µM
10 | FC(F)(F)c1ccc(-c2nc(-c3nc4cc(Cl)c(Cl)cc4[nH]3)c3ccccn23)cc1 | 3.05 µM | > 100 µM
11 | O=[N+]([O-])c1ccc(Nc2ccccc2-c2ccccc2)c2nonc12 | 5.2 µM | 30.5 µM
12 | Cc1nc2ccc(CN(C)c3ccc(C(=O)N[C@@H](CCC(=O)O)C(=O)O)s3)cc2c(=O)[nH]1 | 0.0578 µM | > 100 µM
13 | Cc1[nH]ncc1-c1cc2nc(C3CC4CCN3CC4)[nH]c(=O)c2s1 (stereo not given) | 9.05 µM | 32.2 µM
14 | C[n+]1c(/C=C\C=C\N2CCCCC2)sc2ccccc21 | 0.238 µM | 3.8 µM
15 | O=S(=O)(Nc1ncccn1)c1ccc(N=Nc2ccc(O)c3ncccc23)cc1 | 8.83 µM | 31.2 µM
16 | Cn1cc(-c2nonc2-c2c[nH]c3ccccc23)c2ccccc21 | 0.304 µM | 3.12 µM
17 | CN1CCN(c2ccc(C(=O)Nc3n[nH]c4ccc(Cc5cc(F)cc(F)c5)cc34)c(NC3CCOCC3)c2)CC1 | 1.35 µM | 3.09 µM and 2.91 µM
18 | CN1CCc2cc3c(cc2C1O)OCO3 (stereo not given) | 16 µM and > 100 µM | 34.4 µM and > 100 µM
19 | Cc1cc(C)nc(NC(N)=NCCc2ccccc2)n1 | 1.91 µM | 8.95 µM
20 | CC(C)[C@](O)(c1ccc2cc(OC(F)F)c(OC(F)F)cc2c1)c1cn[nH]n1 | 20.9 µM and 14.2 µM | 57.6 µM and 41.3 µM
21 | OCC1OC(c2scc3c(=S)nc[nH]c23)C(O)C1O (stereo not given) | 8.39 µM | > 100 µM
22 | CC/C(Cc1ccccc1)=C(\c1ccc(OCCN2CCCCCC2)cc1)c1ccc(OC(=O)NCc2ccccc2)cc1 | 2.03 µM | 8.15 µM
23 | CN(C)CCCOc1ccccc1NC1=C(Cl)C(=O)C(Nc2ccccc2OCCCN(C)C)=C(Cl)C1=O | 0.175 µM | 0.352 µM
24 | CO[C@H](C(=O)[C@@H](O)[C@@H](C)O)[C@@H]1Cc2cc3cc(O[C@H]4C[C@@H](O[C@H]5C[C@@H](O)[C@H](O)C(C)O5)[C@H](O)C(C)O4)c(C)c(O)c3c(O)c2C(=O)[C@H]1O[C@H]1C[C@@H](O[C@H]2C[C@@H](O[C@H]3C[C@@H](OC)[C@H](O)C(C)O3)[C@@H](O)C(C)O2)C(O)(O)C(C)O1 (stereo not given in full) | 0.138 µM | 1.17 µM
25 | Cc1c2cc[nH]c(=O)c2c(C)c2c1[nH]c1cc(OCCN3CCN(C)CC3)ccc12 | 0.355 µM | 1.87 µM
26 | Nc1ccn(C2OC(CO)C(O)C2F)c(=O)n1 (stereo not given) | > 5000 µM | > 5000 µM
27 | COc1ccc(-c2[nH]ncc2-c2cc3c(c(OC)c2)OCC(=O)N3)cc1 | 0.354 µM | 28.4 µM
28 | Cc1ccccc1NC(=S)Nc1ccccn1 | 11.8 µM | 81.2 µM
29 | COC(=O)[C@@H](NC(=O)NC(=O)NC(=O)CI)C(C)C | 3.89 µM | 16 µM
30 | O=C(/C=C/c1ccc(B(O)O)cc1)/C=C/c1ccc(B(O)O)cc1 | 1.72 µM | 4.34 µM
